Source: patent US20120003191A1, “VALPROIC ACID, DERIVATIVES, ANALOGUES, AND COMPOSITIONS INCLUDING SAME AND METHODS FOR THEIR THERAPEUTIC USE” (priority 2009, published 2012)

Tests used:
α7 integrin = experiment: FDG based β-galactosidase fluorescent assay (reporter for α7 expression); assay type: cell-based, mouse; details: 2 mM VPA, 48 hours, α7+/− myotubes from day two of differentiation
Protocol: The α7^+/− mice were derived as reported in Flintoff-Dye, et al. Role for the alpha7beta1 integrin in vascular development and integrity, Dev. Dyn. 234:11-21 (2005). These mice were engineered to contain the LacZ gene driven by the α7 integrin promoter. Skeletal muscles from the hind limbs (including gastrocnemius-soleus, quadriceps and tibialis anterior) of a 3-week old α7^+/− mouse were removed under sterile conditions, finely minced in Hank's balanced salt solution (HBSS) and incubated in 5 ml of enzyme solution I consisting of 1.5 U/ml collagenase D (0.15 U/mg powder, from Roche Diagnostics, Indianapolis, Ind.), 2.4 U/ml dispase II (neutral protease, grade II, 0.8 U/mg powder, from Roche Diagnostics) and 2.5 mM calcium chloride for 30 minutes at 37° C. with trituration every 5 minutes. The supernatant was decanted into 5 ml of 20% fetal bovine serum (FBS) (Biomeda Corporation, Foster City, Calif.) in HBSS. Enzyme solution II consisting of 0.6 mg/ml trypsin (stock solution 0.5%, from Invitrogen) in HBSS was added to the remaining muscle fragments, incubated for 30 minutes as above, and the cell suspensions were pooled. […] The fluorescence in each well was quantified using an Analyst plate reader (Molecular Devices, Sunnyvale, Calif.).

[1] = test system: CD8 positive cytotoxic T-cells; experiment: Quantification of CD8 positive cells in muscle; assay type: in vivo, mouse; details: 240 mg/kg i.p. twice daily for 5 weeks, quadriceps
Protocol: 240 mg/kg body weight of VPA was injected intraperitoneally twice daily into mdx/utrn^−/− mice (n=9) starting at 3 weeks of age, for a period of 5 weeks. Control mice were injected with saline (n=9). Body-weights were determined daily. 8 μm thick cryosections of the quadriceps muscles of saline and VPA injected mice were made. Cytotoxic T-cells were detected with a FITC-labeled rat anti-mouse CD8a antibody (BD Pharmingen, San Diego, Calif.) as follows: the sections were fixed in 4% paraformaldehyde for 5 minutes, washed in PBS three times for 5 minutes each, blocked with 5% BSA/PBS for 1 hour, anti-CD8 antibody added at 1:1000 dilution for 1 hour and washed in 1% BSA/PBS three times for 5 minutes each. The sections were mounted in Vectashield containing DAPI (Vector Laboratories). The number of CD8 positive cells and the total number of nuclei in the same field were counted in ten random fields for each mouse. The ratio of the number of CD positive cells to the total number of nuclei were calculated, averaged and plotted for the saline and VPA treated groups.

mdx/utrn−/− mice = experiment: Contracture assay in mdx/utrn−/− mice; assay type: in vivo, mouse; details: 35th day of treatment
Protocol: mdx/utrn−/− mice lack both dystrophin and utrophin, and were bred and genotyped as reported in Burkin, et al., Enhanced expression of the alpha 7 beta 1 integrin reduces muscular dystrophy and restores viability in dystrophic mice, J. Cell Biol. 152:1207-18 (2001). 240 mg/kg body weight of VPA was injected intraperitoneally twice daily into mdx/utrn^−/− mice (n=9) starting at 3 weeks of age, for a period of 5 weeks. Control mice were injected with saline (n=9). Body-weights were determined daily. On the 35th day of treatment, mdx/utrn^−/− mice injected with saline (n=9) or VPA (n=9) were tested for contractures in their hind limbs as follows: mice were placed on a flat table and were lifted by their tails so that their fore-limbs touched the table-surface and their hindquarters were in air. The positions of the hind-limbs were photographed. Normally, mice in this position extend their hind-limbs. The presence of contractures in dystrophic mice prevents full extension.

α7+/− myotubes = experiment: Quantification of apoptosis in myotubes (TUNEL assay); assay type: cell-based, mouse
Protocol: Differentiating cultures of α7^+/− cells on 1% gelatin-coated Lab-Tek 8-well chamber slides (Nalge-Nunc International) were exposed to 2 mM VPA on day two of differentiation, and fresh VPA in differentiation medium was added every 24 hours. On day eight of differentiation, the DeadEnd Fluorometric TUNEL assay (Promega) was used to label apoptotic nuclei, following the manufacturer's instructions. The numbers of clusters of apoptotic nuclei in each chamber were counted.

SMILES: CCCC(CCC)C(=O)O [VPA, valproic acid]
- β-galactosidase activity (reporter for α7 expression), highest level (α7 integrin): 1.4 fold
- decrease of CD8 positive cytotoxic T-cell content [1]: approximately 2.1 fold
- proportion of mice with contractures (mdx/utrn−/− mice; 240 mg/kg i.p. twice daily, n=9): 11.1%
- proportion with contractures, saline-injected group higher compared to VPA-injected group (mdx/utrn−/− mice): approximately 4 fold
- fewer apoptotic nuclei (TUNEL positive nuclear clusters) compared with control cells (α7+/− myotubes; 2 mM VPA from day 2 of differentiation, day 6 of treatment): greater than 5 fold
- appearance of cultures after day 8 (controls vacuolated, some detachment) (α7+/− myotubes; 2 mM VPA, phase-contrast): appeared relatively normal
